Key:
3T3-L1 adipocytes = assay: DNA synthesis / cell proliferation (CyQUANT); format: cell-based, murine; settings: 48 hours
Method: 3T3-L1 preadipocytes were incubated at a density of 8000 cells/cm^2 (10 cm^2 dish) and grown in Dulbecco's modified Eagle's medium (DMEM) containing 10% FBS and antibiotics (adipocyte medium) at 37° C. in 5% CO2 in air. Confluent preadipocytes were induced to differentiate with a standard differentiation medium consisting of DMEM-F 10 (1:1, vol/vol) medium supplemented with 1% FBS, 1 μM dexamethasone, IBMX (0.5 mM) and antibiotics (1% Penicillin-Streptomycin). Preadipocytes were maintained in this differentiation medium for 3 days and subsequently cultured in adipocyte medium. Cultures were re-fed every 2-3 days to allow 90% of cells to reach full differentiation before conducting chemical treatment. Chemicals were freshly diluted in adipocyte medium before treatment. Cells were washed with fresh adipocyte medium, re-fed with medium containing the different treatments, and incubated at 37° C. in 5% CO2 in air before analysis. Cell viability was measured via trypan blue exclusion. Cells were plated in DMEM with different treatment in duplicate in 96-well plates. After 48 h, a CyQUANT Cell Proliferation Kit (Molecular Probes, Eugene, Oreg.) was used following the manufacturer's protocol a microplate fluorometer (Packard Instrument Company, Inc., Downers Grove, Ill.) was used to measure CyQUANT fluorescence. Cell viability was determined by Trypan blue exclusion examination.

IL-6 = IL-6 expression in differentiated 3T3-L1 adipocytes; format: cell-based, mouse; settings: for effect on IL-6 expression: 10 nmol/L, 48 h, adipocytes cultured alone
Method: 3T3-L1 pre-adipocytes were incubated at a density of 8000 cells/cm^2 (10 cm^2 dish) and grown in Dulbecco's modified Eagle's medium (DMEM) containing 10% FBS and antibiotics (adipocyte medium) at 37° C. in 5% CO2 in air. Confluent pre-adipocytes were induced to differentiate with a standard differentiation medium consisting of DMEM-F10 (1:1, vol/vol) medium supplemented with 1% fetal bovine serum (FBS), 1 μM dexamethasone, isobutylmethylxanthine (IBMX) (0.5 mM) and antibiotics (1% Penicillin-Streptomycin). Pre-adipocytes were maintained in this differentiation medium for 3 days and subsequently cultured in adipocyte medium. Cultures were re-fed every 2-3 days to allow 90% cells to reach fully differentiation before conducting chemical treatment.
Cells were incubated in serum free medium overnight before chemical treatment. Chemicals were freshly diluted in adipocyte medium before treatment. […] Cell viability was measured via trypan blue exclusion.
Adipocyte and muscle 18s, TNFα, IL-6, IL-8, IL-15 and adiponectin were quantitatively measured using a smart cycler real-time PCR system (Cepheid, Sunnyvale, Calif.) with a TaqMan 1000 Core Reagent Kit (Applied Biosystems, Branchburg, N.J.). The primers and probe sets were obtained from Applied Biosystems TaqMan® Assays-on-Demand™ Gene Expression primers and probe set collection and utilized according to manufacture's instructions. Pooled adipocyte total RNA was serial-diluted in the range of 1.5625-25 ng and used to establish a standard curve; and total RNA for the unknown samples were also diluted in this range. Reactions of quantitative RT-PCR for standards and unknown samples were also performed according to the instructions of Smart Cycler System (Cepheid, Sunnyvale, Calif.) and TaqMan Real Time PCR Core Kit (Applied Biosystems, Branchburg, N.J.). The mRNA quantitation for each sample was further normalized using the corresponding 18s quantitation.
RAW 264 macrophages and 3T3-L1 preadipocytes (American Type Culture Collection) were incubated at a density of 8000 cells/cm2 (10 cm2 dish) and grown in Dulbecco's modified Eagle's medium (DMEM) containing 10% FBS and antibiotics (adipocyte medium) at 37° C. in 5% CO2 in air. […]
Adipocyte and muscle 18s, CD14, TNFα, MIP, M-CSF, IL-6 and MCP-1 were quantitatively measured using a Smart Cycler Real Time PCR System (Cepheid, Sunnyvale, Calif.) with a TaqMan 1000 Core Reagent Kit (Applied Biosystems, Branchburg, N.J.). […] Reactions of quantitative RT-PCR for standards and unknown samples were also performed according to the instructions of Smart Cycler System (Cepheid, Sunnyvale, Calif.) and TaqMan Real Time PCR Core Kit (Applied Biosystems, Branchburg, N.J.). The mRNA quantitation for each sample was further normalized using the corresponding 18s quantitation.

Structure (SMILES): OO [H2O2, hydrogen peroxide]
- increase of total DNA of cultured cells (3T3-L1 adipocytes; H2O2 100 nmol/L, p<0.001): 39%
- increase of IL-6 expression (IL-6; 100 nmol/L H2O2, 48 h, p<0.001): 167%

Structure (SMILES): C=C1/C(=C\C=C2/CCC[C@]3(C)[C@@H]([C@H](C)CCCC(C)(C)O)CC[C@@H]23)C[C@@H](O)C[C@@H]1O [calcitriol, 1, 25-Dihydroxyvitamin D]
- effect on glucose induced DNA synthesis (3T3-L1 adipocytes; added to glucose 30 mmol/L, nifedipine 10 μmol/L): augmented
- effect on IL-6 expression (IL-6): markedly stimulate
- effect on IL-6 expression (IL-6; listed as 1α, 25-(OH)2-D3): markedly increased

Structure (SMILES): Cc1c(C)c2c(c(C)c1O)CC[C@@](C)(CCC[C@H](C)CCC[C@H](C)CCCC(C)C)O2 [α-tocopherol]
- effect on H2O2 induced DNA synthesis (3T3-L1 adipocytes; with H2O2 100 nmol/L, α-tocopherol 1 μmol/L, nifedipine 10 μmol/L): completely blocked
- effect on hydrogen peroxide increased IL-6 expression (IL-6; 1 μmol/L α±tocopherol plus 100 nmol/L H2O2, 48 h, p=0.016): attenuated

— patent publication US20070092577A1, “Dietary calcium for reducing the production of reactive oxygen species” (University of Tennessee Research Foundation, priority 2005, published 2007)
